Where a SMILES comes first, the peptide text is derived from it. Bridges are numbered along the chain shown (N, C = ends). [ ]: non-standard residue; d: D form. The star is where a group is joined. Pentanoyl(5-guanidino) = NC(N)=NCCCCC(=O)*; dNle = CCCC[C@@H](N)C(=O)O; Ava = NCCCCC(=O)O
Tests used:
rat MCH-1R [1] = target: T1, rat MCH-1R (Rattus norvegicus, UniProt P97639); assay: Aequorin bioluminescence functional assay, MCH-1R agonist activity; details: for MCH-1R Agonist Activation %: 293-AEQ17 cells expressing rat MCH-1R
human MCH-2R [2] = target: T2, human MCH-2R (Homo sapiens, UniProt Q969V1); assay: Aequorin bioluminescence functional assay, MCH-2R agonist activity; details: for MCH-2R Agonist Activation %: 293-AEQ17 cells expressing human MCH-2R
human MCH-1R = human MCH-1R (Homo sapiens, UniProt Q99705); assay: MCH-1R binding assay, inhibition of [125I]-human MCH binding to membranes
Experimental: (§1) Cell membranes were prepared on ice. Each T-75 flask was rinsed twice with 10 ml of Enzyme-free Cell Dissociation Buffer (Specialty Media, Lavallette, N.J.), and the cell monolayer was detached in an additional 10 ml of Enzyme-free Cell Dissociation Buffer by incubation at room temperature for 10 minutes. Dissociated cells were centrifuged (500×g for 10 minutes at 4° C.), resuspended in 5 ml homogenization buffer (10 mM Tris-HCl, pH 7.4, 0.01 mM Pefabloc, 10 μM phosphoramidon, 40 μg/ml bacitracin) and then homogenized using a glass homogenizer (10-15 strokes). The homogenate was centrifuged for 10 minutes (1,000×g at 4° C.). The resulting supernatant was then centrifuged at 38,700×g for 15 minutes at 4° C. Pelleted membranes were resuspended (passed through 25 gauge needle 5 times), snap-frozen on liquid nitrogen, and stored at −80° C. until use.
Bound radioligand was separated by rapid vacuum filtration (Packard Filtermate 96-well cell harvester) through GF/C filters pretreated for 1 hour with 1% polyethylenimine. After application of the membrane suspension to the filter, the filters were washed 3 times with 3 ml each of ice-cold 50 mM Tris-HCl, pH 7.4, 10 mM MgCl2, 2 mM EDTA, 0.04% Tween 20 and the bound radioactivity on the filters was quantitated by scintillation counting (TopCount device).
For the SPA-based assay, WGA-PVT beads (NEN Life Sciences Products) were resuspended in Dulbecco's PBS with calcium and magnesium (500 mg beads in 4 ml PBS). […] The suspension was mixed gently for 20 minutes, 12.3 ml of assay buffer and protease inhibitors were added (final concentration given): 2 μg/ml leupeptin, 10 μM phosphoramidon, 40 μg/ml bacitracin, 5 μg/ml aprotinin, 0.1 mM Pefabloc.
Coated beads were kept on ice until use.

human MCH-2R [3] = target: T2, human MCH-2R; assay: MCH-2R binding assay, inhibition of [125I]-human MCH binding to membranes; design: expressed in transfected cells; host or cells: 293-AEQ17 (aequorin-expressing HEK-293 reporter line); details: inhibition of [125I]-human MCH (Phe13, Tyr19) binding, cell membranes
Experimental: as §1
Bound radioligand was separated by rapid vacuum filtration (Packard Filtermate 96-well cell harvester) through GF/C filters pretreated for 1 hour with 1% polyethylenimine. After application of the membrane suspension to the filter, the filters were washed 3 times with 3 ml each of ice-cold 50 mM Tris-HCl, pH 7.4, 10 mM MgCl2, 2 mM EDTA, 0.04% Tween 20 and the bound radioactivity on the filters was quantitated by scintillation counting (TopCount device). […]

rat MCH-1R [4] = target: T1, rat MCH-1R; assay: Antagonist assay, 293-AEQ17 cells expressing rat MCH-1R; assay type: cell-based; design: expressed in transfected cells; host or cells: 293-AEQ17 (aequorin-expressing HEK-293 reporter line); details: for Kb: determined per Trends in Pharmacol. Sci. 14:237-239, 1993
Experimental: Cells were grown in DMEM (high glucose) supplemented with 10% FBS (Hyclone), 500 μg/ml G418, 200 μg/ml hygromycin and 25 mM HEPES in T75 flasks.
The assay itself involved charging apoaequorin with coelenterazine cp(Molecular Probes, C-14260) and was performed as follows:
1. Confluent T75 flasks are rinsed 1× with 12 ml Hams F12 medium+300 μM glutathione+0.1% FBS.
2. The cells were charged by adding 8 ml Hams F12+0.1% FBS+300 μM glutathione+10 μM coelenterazine, incubate at 37° C. for 1 hour.
4. ECB (6 ml) is added to the flask and the cells are dissociated with a rubber-tipped scraper, centrifuged for 5 minutes at 2500 rpm and the cell pellet resuspended in 5 ml ECB. The cells are counted and diluted to 5×10^5/ml.
Binding and agonist activity at the MCH-1R and MCH-2R was determined as described in Examples 2 and 3. Antagonist IC50 was determined as described in Example 4. Kb was determined using the procedures described in Trends in Pharmacol. Sci. 14:237-239, 1993.

Sequence of human MCH-1R (Q99705 whole entry): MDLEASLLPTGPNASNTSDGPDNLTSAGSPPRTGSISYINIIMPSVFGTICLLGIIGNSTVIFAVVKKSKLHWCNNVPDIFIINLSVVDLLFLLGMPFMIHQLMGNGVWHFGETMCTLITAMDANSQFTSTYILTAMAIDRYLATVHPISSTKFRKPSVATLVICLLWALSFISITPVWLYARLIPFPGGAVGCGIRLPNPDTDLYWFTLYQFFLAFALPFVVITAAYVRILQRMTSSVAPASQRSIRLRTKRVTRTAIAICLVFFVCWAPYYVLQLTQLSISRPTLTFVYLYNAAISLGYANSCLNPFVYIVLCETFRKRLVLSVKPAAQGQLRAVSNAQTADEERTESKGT
T1 sequence (P97639 whole entry): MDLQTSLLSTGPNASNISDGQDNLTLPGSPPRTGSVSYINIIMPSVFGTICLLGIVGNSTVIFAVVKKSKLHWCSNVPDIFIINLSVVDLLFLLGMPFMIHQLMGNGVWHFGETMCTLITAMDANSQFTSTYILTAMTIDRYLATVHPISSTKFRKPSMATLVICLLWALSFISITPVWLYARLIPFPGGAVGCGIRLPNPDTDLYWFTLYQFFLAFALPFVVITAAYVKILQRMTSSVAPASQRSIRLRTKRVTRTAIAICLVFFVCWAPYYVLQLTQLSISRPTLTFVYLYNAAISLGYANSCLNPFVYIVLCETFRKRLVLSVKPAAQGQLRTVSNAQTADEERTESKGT
T2 sequence (Q969V1 whole entry): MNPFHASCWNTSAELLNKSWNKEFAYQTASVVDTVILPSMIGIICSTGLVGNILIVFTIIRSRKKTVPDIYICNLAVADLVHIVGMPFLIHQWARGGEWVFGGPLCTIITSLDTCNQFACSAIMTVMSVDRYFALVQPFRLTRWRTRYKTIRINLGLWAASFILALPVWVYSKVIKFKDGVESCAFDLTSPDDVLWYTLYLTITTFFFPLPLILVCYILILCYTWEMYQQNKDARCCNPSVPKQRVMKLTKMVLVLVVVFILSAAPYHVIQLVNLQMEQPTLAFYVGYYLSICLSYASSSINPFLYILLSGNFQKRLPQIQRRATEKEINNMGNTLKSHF

With CSCC[C@@H]1NC(=O)[C@@H](NC(=O)[C@H](CCCNC(=N)N)NC(C)=O)CSSC[C@@H](C(N)=O)NC(=O)[C@@H]2CCCN2C(=O)[C@H](CCCNC(=N)N)NC(=O)[C@H](Cc2ccc(O)cc2)NC(=O)[C@H](C(C)C)NC(=O)[C@H](CCCNC(=N)N)NC(=O)CCCCNC(=O)CCCCNC1=O [SEQ. ID. NO. 3] (Ac-RCM[Ava][Ava]RVYRPC-NH2; disulfide 2-11; C-terminus assumed) the EC50 (rat MCH-1R [1]) was 587 nM, the “MCH-1R Agonist Activation %” value (rat MCH-1R [1]) was 82% and the EC50 (human MCH-2R [2]) was > 10000 nM. The IC50 (human MCH-1R) was 3.7 nM and the IC50 (human MCH-2R [3]) was 350 nM.
CSCC[C@@H]1NC(=O)[C@@H](NC(=O)CCCNC(=N)N)CSSC[C@@H](C(N)=O)NC(=O)CCCCNC(=O)CCCCNC(=O)[C@H](Cc2ccc(O)cc2)NC(=O)[C@H](C(C)C)NC(=O)[C@H](CCCNC(=N)N)NC(=O)CNC(=O)[C@H](CC(C)C)NC1=O [SEQ. ID. NO. 12] was tested, and the EC50 (rat MCH-1R [1]) was > 10000 nM, the “MCH-1R Agonist Activation %” value (rat MCH-1R [1]) was 6% and the EC50 (human MCH-2R [2]) was > 10000 nM. For the same molecule, the “MCH-2R Agonist Activation %” value (human MCH-2R [2]) was 14%, the IC50 (human MCH-1R) was 8 nM and the IC50 (human MCH-2R [3]) was 4000 nM.
With CCCC[C@H]1NC(=O)[C@H](CC(C)C)NC(=O)[C@H](CCSC)NC(=O)[C@@H](NC(=O)CCCCNC(=N)N)CSSC[C@@H](C(N)=O)NC(=O)CCCCNC(=O)CCCCNC(=O)[C@H](Cc2ccc(O)cc2)NC(=O)[C@H](C(C)C)NC(=O)[C@H](CCCNC(=N)N)NC1=O [SEQ. ID. NO. 27] ({Pentanoyl(5-guanidino)}-CML[dNle]RVY[Ava][Ava]C-NH2; disulfide 1-10; C-terminus assumed) the IC50 (rat MCH-1R [4]) was 5.4 nM, the Kb (rat MCH-1R [4]) was 2.4 nM and the EC50 (rat MCH-1R [1]) was > 10000 nM. The “MCH-1R Agonist Activation %” value (rat MCH-1R [1]) was 3%, the EC50 (human MCH-2R [2]) was > 10000 nM and the “MCH-2R Agonist Activation %” value (human MCH-2R [2]) was 91%. For the same molecule, the IC50 (human MCH-1R) was 28 nM.
CSCC[C@@H]1NC(=O)[C@@H](NC(=O)[C@H](CCCNC(=N)N)NC(C)=O)CSSC[C@@H](C(N)=O)NC(=O)CCCCNC(=O)CCCCNC(=O)[C@H](Cc2ccc(O)cc2)NC(=O)[C@H](C(C)C)NC(=O)[C@H](CCCNC(=N)N)NC(=O)CCCCNC(=O)CCCCNC1=O [SEQ. ID. NO. 30] (Ac-RCM[Ava][Ava]RVY[Ava][Ava]C-NH2; disulfide 2-11 (inferred); C-terminus assumed) was tested, and the IC50 (rat MCH-1R [4]) was 10.6 nM, the Kb (rat MCH-1R [4]) was 4.6 nM and the EC50 (rat MCH-1R [1]) was > 10000 nM. For the same molecule, the “MCH-1R Agonist Activation %” value (rat MCH-1R [1]) was 3%, the EC50 (human MCH-2R [2]) was > 10000 nM and the “MCH-2R Agonist Activation %” value (human MCH-2R [2]) was 16%. It also gave an IC50 (human MCH-1R) of 88 nM.
In the case of CSCC[C@@H]1NC(=O)[C@@H](NC(=O)CCCCNC(=N)N)CSSC[C@@H](C(N)=O)NC(=O)CCCCNC(=O)CCCCNC(=O)[C@H](Cc2ccc(O)cc2)NC(=O)[C@H](C(C)C)NC(=O)[C@H](CCCNC(=N)N)NC(=O)CCCCNC(=O)CCCCNC1=O [SEQ. ID. NO. 32] ({Pentanoyl(5-guanidino)}-CM[Ava][Ava]RVY[Ava][Ava]C-NH2; disulfide 1-10; C-terminus assumed), the IC50 (rat MCH-1R [4]) is reported as 56 nM, the Kb (rat MCH-1R [4]) is reported as 24 nM and the EC50 (rat MCH-1R [1]) is reported as > 10000 nM. For the same molecule, the “MCH-1R Agonist Activation %” value (rat MCH-1R [1]) was 3%, the EC50 (human MCH-2R [2]) was > 10000 nM and the “MCH-2R Agonist Activation %” value (human MCH-2R [2]) was 91%. The IC50 (human MCH-1R) was 62 nM.
For CSCC[C@@H]1NC(=O)[C@@H](NC(=O)[C@@H](CCCNC(=N)N)NC(C)=O)CSSC[C@@H](C(N)=O)NC(=O)CCCCNC(=O)CCCCNC(=O)[C@H](Cc2ccc(O)cc2)NC(=O)[C@H](C(C)C)NC(=O)[C@H](CCCNC(=N)N)NC(=O)CCCCNC(=O)CCCCNC1=O [SEQ. ID. NO. 33] (Ac-[dR]CM[Ava][Ava]RVY[Ava][Ava]C-NH2; disulfide 2-11 (inferred); C-terminus assumed), the IC50 (rat MCH-1R [4]) was 13.8 nM, the Kb (rat MCH-1R [4]) was 6 nM and the EC50 (rat MCH-1R [1]) was > 10000 nM. For the same molecule, the “MCH-1R Agonist Activation %” value (rat MCH-1R [1]) was 2%, the EC50 (human MCH-2R [2]) was > 10000 nM and the “MCH-2R Agonist Activation %” value (human MCH-2R [2]) was 28%. It also gave an IC50 (human MCH-1R) of 135 nM.
